Patent US20100120788A1, “IDENTIFICATION OF POLYNUCLEOTIDES FOR […] OF COMPOUNDS THAT […] WITH AND/OR MODULATE PROTEIN TYROSINE KINASES AND/OR PROTEIN TYROSINE KINASE […] IN PROSTATE CELLS” (Bristol-Myers Squibb Company, priority 2007, published 2010)

Experiments:
16 prostate cell lines = assay: IC50 grouping of the panel of prostate cell lines (MTS); assay type: cell-based; details: Homo sapiens
Protocol: Based on the IC50s, cell lines were classified into two groups: 11 cell lines with IC50 lower than 200 nM were designated as sensitive group, and 5 cell lines with IC50 at least greater than 2 μM were considered as resistant group. The separation of these two groups was quite well, and the sensitive/resistant demarcation of 200 nM is within the peak range of BMS-A plasma concentrations in patients treated with the doses near the maximum tolerated dose.
The effect of BMS-A (dasatinib) treatment on cell proliferation was measured using a MTS colorimetric method (Promega, Madison, Wis.). The optimum number of cells to seed in 96-well plates to achieve linearity were determined in pilot experiments. Cells were plated at density of 2000-5000 cells/well into 96-well plates and cultured overnight. Cells were then treated with dasatinib at serially diluted concentrations. Three days later, MTS was added to the medium and quantified on a SPECTRAMAX® photometric plate reader (Molecular Devices, Sunnyvale, Calif.) at 490 nm. The results were plotted against drug concentrations and IC50s were calculated using Prism4 software (GraphPad, San Diego, Calif.). […] The mean±standard deviation (SD) were calculated except for cell lines that were highly resistant to the compound where accurate IC50s were hard to obtain. […]

NB11 = assay: In vitro cell proliferation assay (MTS); assay type: cell-based, human; details: NB11 cells
Protocol: (§1) The IC50 for each cell line was assessed in by MTS assays as described in Example 1 (Methods). […] The IC50 unit is μM.
(§2) All cell lines were obtained from the American Type Culture Collection (Manassas, Va.), except DUCaP, which was obtained from Dr. Kenneth Pienta at University of Michigan. PWR1E and MDAPCa2b cells were grown in BRFF-HPC1 serum-free medium (AthenaES, Baltimore, Md.), and all other cells were cultured in RPMI 1640 supplemented with 10% fetal bovine serum, 100 IU/ml penicillin, and […] (Invitrogen, Carlsbad, Calif.). DUCaP cells were maintained in the presence of an immortalized mouse fibroblast cell line, which formed a layer beneath DUCaP cells that easily dislodged. Cells were incubated at 37° C. with circulation of 5% CO2.
(§3) The optimum number of cells to seed in 96-well plates to achieve linearity were determined in pilot experiments. Cells were plated at density of 2000-5000 cells/well into 96-well plates and cultured overnight. Cells were then treated with dasatinib at serially diluted concentrations. Three days later, MTS was added to the medium and quantified on a SPECTRAMAX® photometric plate reader (Molecular Devices, Sunnyvale, Calif.) at 490 nm. The results were plotted against drug concentrations and IC50s were calculated using Prism4 software (GraphPad, San Diego, Calif.). The IC50 was the concentration of dasatinib that would reduce cell proliferation by 50% compared to control. Minimum three independent assays were performed for each cell line. […] In the latter case, the concentration of dasatinib that was able to consistently reduce cell proliferation was used as IC50. […] Dasatinib stock, dissolved in DMSO, was 10 mg/ml.

22Rvl = assay: In vitro cell proliferation assay (MTS); assay type: cell-based, human; details: 22Rvl cells
Protocol: as §1, §2, §3

WPMY1 = assay: In vitro cell proliferation assay (MTS); assay type: cell-based, human; details: WPMY1 cells
Protocol: as §1, §2, §3

DU145 = assay: In vitro cell proliferation assay (MTS); assay type: cell-based, human; details: DU145 cells
Protocol: as §1, §2, §3

PWR1E = assay: In vitro cell proliferation assay (MTS); assay type: cell-based, human; details: PWR1E cells
Protocol: as §1, §2, §3

NB26 = assay: In vitro cell proliferation assay (MTS); assay type: cell-based, human; details: NB26 cells
Protocol: as §1, §2, §3

HPV10 = assay: In vitro cell proliferation assay (MTS); assay type: cell-based, human; details: HPV10 cells
Protocol: as §1, §2, §3

DUCaP = assay: In vitro cell proliferation assay (MTS); assay type: cell-based, human; details: DUCaP cells
Protocol: as §1, §2, §3

W99 = assay: In vitro cell proliferation assay (MTS); assay type: cell-based, human; details: W99 cells
Protocol: as §1, §2, §3

[1] = Homo sapiens, 72 h, MTS, three days, read-out: mean IC50 (μM) to BMS-A
[2] = Homo sapiens, 72 h, MTS, three days, highly resistant: concentration that consistently reduced proliferation used as IC50, read-out: mean IC50 (μM) to BMS-A

With Cc1nc(Nc2ncc(C(=O)Nc3c(C)cccc3Cl)s2)cc(N2CCN(CCO)CC2)n1 [BMS-A, N-(2-chloro-6-methylphenyl)-2-[[6-[4-(2-hydroxyethyl)-1-piperazinyl]-2-methyl-4-pyrimidinyl]amino]-5-thiazolecarboxamide] the IC50 (16 prostate cell lines; 5 cell lines considered as resistant group) was > 2000 nM, the IC50 (16 prostate cell lines; 11 cell lines designated as sensitive group) was < 200 nM and the IC50 (NB11; [1]) was 0.163 µM. For the same compound, the Classification (NB11; based on IC50) was “Sensitive (The cell lines with an IC50 lower than 0.2 μm were defined as sensitive to the compound)”, the Classification (22Rvl; based on IC50) was “Resistant (those having an IC50 above 0.2 μm were considered to be resistant)” and the IC50 (22Rvl; [2]) was 2 µM. The IC50 (WPMY1; Homo sapiens, WPMY-1, 72 h, MTS, three days, highly resistant: concentration that consistently reduced proliferation used as IC50, read-out: mean IC50 (μM) to BMS-A) was 2.5 µM, the Classification (WPMY1; based on IC50) was “Resistant (those having an IC50 above 0.2 μm were considered to be resistant)” and the Classification (DU145; based on IC50) was “Sensitive (The cell lines with an IC50 lower than 0.2 μm were defined as sensitive to the compound)”. The IC50 (DU145; Homo sapiens, DU-145, 72 h, MTS, three days, read-out: mean IC50 (μM) to BMS-A) was 0.057 µM, the IC50 (PWR1E; Homo sapiens, PWR-1E, 72 h, MTS, three days, read-out: mean IC50 (μM) to BMS-A) was 0.145 µM and the Classification (PWR1E; based on IC50) was “Sensitive (The cell lines with an IC50 lower than 0.2 μm were defined as sensitive to the compound)”. The IC50 (NB26; [1]) was 0.139 µM, the Classification (NB26; based on IC50) was “Sensitive (The cell lines with an IC50 lower than 0.2 μm were defined as sensitive to the compound)” and the Classification (HPV10; based on IC50) was “Sensitive (The cell lines with an IC50 lower than 0.2 μm were defined as sensitive to the compound)”. The IC50 (HPV10; [1]) was 0.058 µM, the Classification (DUCaP; based on IC50) was “Resistant (those having an IC50 above 0.2 μm were considered to be resistant)” and the IC50 (DUCaP; [2]) was 2.5 µM. The IC50 (W99; [1]) was 0.199 µM and the Classification (W99; based on IC50) was “Sensitive (The cell lines with an IC50 lower than 0.2 μm were defined as sensitive to the compound)”.
